The source of these data is patent EP2974743B1, “CYCLODEXTRIN CARRIER-BASED ARTEANNUIN COMPOUND CONJUGATE AND PREPARING METHOD THEREOF” (KPC Pharmaceuticals, Inc., priority 2012, dated 2014).

The term IC50 denotes the midpoint of a concentration-inhibition curve.

Series [1] in a line: solubility in water. It counts as physicochemical. As to conditions: in words. From the text:
Also, the cyclodextrin carrier-based arteannuinoid compound is absorbed in merely a small amount when passing through stomach and small intestine of a human body, which is mainly absorbed by the large intestine, with a property of releasing in straight cecum. Therefore, the cyclodextrin carrier-based arteannuinoid compound according to the present disclosure can effectively enter the body of a patient, improving the bioavailability.

Series [2] relates to mouse hepatocarcinoma H22. As to conditions: 300 mg/kg by gavage; cited from earlier work.
Series [3] has as its system SW480. The series is described as follows: MTT assay, tumor cell growth inhibition. As to conditions: human rectal cancer cells SW480, 48h culture with compound. It counts as cell-based. As to the method: (§1) For example, 180 µl suspension of human rectal cancer cells HCT116, Lovo, SW480 and HT29 (at a concentration of 4×10^4/mL) was added to a 96 well plate, and pre-cultured under 5% CO2, 37°C and saturated moisture for 24h. 150 µl medium was replaced, and 20 µl medium containing molecular assembly at different concentrations was added. The cells were cultured for another 48h, with the medium free of a sample as a negative control, and a medium containing camptothecin, oxaliplatin or fluorouracil at different concentrations as positive controls. MTT assay was used to determine the OD value, and the growth inhibition rate was calculated. The inhibition of compounds at high, medium and low concentration on the tumor cell proliferation was observed. All the experiments above were performed in triplet. The results of in vitro experiment of the arteannuin cyclodextrin conjugate on human rectum and caecum cancer cell are shown in table 1. Table 1. The comparison of IC50 values (µM) for the cyclodextrin carrier-based arteannuinoid compound conjugate according to the present disclosure and some arteannuinoid compounds in several rectal cancer cells.
(In general: Tetrazolium assays rely on reduction of a dye to a coloured formazan, in cell work by metabolically active cells.)

The subject of series [4] is HCT116. The series is described as follows: MTT assay, tumor cell growth inhibition. As to conditions: human rectal cancer cells HCT116, 48h culture with compound. It counts as cell-based. As to the method:
as §1

The test system of series [5] is Lovo. The series is described as follows: MTT assay, tumor cell growth inhibition. It is filed as cell-based. As to conditions: human rectal cancer cells Lovo, 48h culture with compound. As to the method:
as §1

The test system of series [6] is HT 90. Nature of the series: MTT assay, tumor cell growth inhibition. It is filed as cell-based. As to conditions: human rectal cancer cells HT 90 (text: HT29), 48h culture with compound. As to the method: as §1

Regarding `C[C@H]1[C@H](OC(=O)CCC(=O)O)O[C@@H]2O[C@@]3(C)CC[C@H]4[C@H](C)CC[C@@H]1[C@@]24OO3` [artesunate], the solubility in water entry in series [1] was “almost insoluble in water”. The anti-tumor rate entry in series [2] is “above 40%”.
For the compound “mono-6-artesunate-β-cyclodextrin conjugate [Example 1]”, the IC50 in series [3] is 3.92 µM; in series [4], 0.84 µM; in series [5], 0.72 µM; in series [6] it was 5.3 µM.
